# Test results reported in US7718784B2, “Switchable nucleic acids for diagnostics, screening and molecular electronics” (priority 2003, dated 2010).
# [dabcylT] = deoxythymidine carrying a dabcyl quencher; {FAM} = fluorescein (FAM) label; d = 2'-deoxy (DNA); r = 2'-OH (RNA)
# What was measured:
# [1] = tested on: NC; details: cited from earlier work
# [2] = tested on: proviral DNA synthesis; details: cited from earlier work
# [3] = target: NCp7 (Human immunodeficiency virus type 1 group M subtype B, UniProt P12493); details: for difference in fluorescence intensity (factor): DNA analogs of the two extreme states H and O
# From the text: This switch has fluorescent labels, * (e.g., FAM, 6-carboxy-fluorescein), at the 5′-end of the chain and Q (a quencher, e.g., dabcyl) near the 3′-end of the DNA segment (light font). […] In the O species, * and Q are within the Förster distance for efficient quenching. However, they are far apart in the extended hairpin form, H, and the switch emits strongly.
# By altering the DNA sequence, K1 is adjusted between 0.1-0.01 (K1=[O]/[H]). […] Upon addition of NCp7 (P), the K1 equilibrium shifts to the right, and the fluorescence signal decreases. The switch is set to a null signal in the presence of a slight excess of P, and is triggered to emit when a competitor, C, sequesters the protein in the P.C complex. […] Knowledge of K1, K2, and the input concentrations, Ot, Pt, and Ct will allow estimation of K3.
# This allows the equilibrium shift upon changing the sequence, or adding NCp7, to be monitored very easily. Simply put, the fluorescence of pure H and O are known, so their populations in a mixed system will be just a linear function of the measured fluorescence.
substance,measurement,setting,value
c(F-C-dW-R-C-K),"competition with NC for in vitro recognition of its RNA, DNA and protein targets",[1],competes with NC
same,In vivo effects,[2],suggest impairment of proviral DNA synthesis
FAMd(GCTATCCACCGATAGC(T-dabcyl)CCAACACGC)-UAGCGGUGGCUAGC (DNA GCTATCCACCGATAGCTCCAACACGCUAGCGGUGGCUAGC; chemistry not fully specified) [M3],equilibration with NCp7,[3]; 10 nM concentration of the switch,within a minute
"FAM-d(GCATGCCTCCGCATGC(T-dabcyl)CCAACACGC)-UAGCGGUGGCUAGC (DNA GCATGCCTCCGCATGCTCCAACACGCUAGCGGUGGCUAGC; sugars from the 5' end d26 r14, [dabcylT] at 17, 5' {FAM}, backbone and methylation of C not given here) [M2]",fluorescence of switch without and with NCp7,[3],bright in the absence of NCp7 and dark in its presence
same,difference in fluorescence intensity (factor),[3],10
FAMd(GCTAGCCACCGCTAGC(T-dabcyl)CCAACACGC)-UAGCGGUGGCUAGC [M1],difference in fluorescence intensity (factor),[3],10
